Read-outs that look alike come from different tables or passages of the source. Blank lines part the entries; values can stand above or below the molecule they belong to.
Tests used:
[1] = biological target: T1, DDAH (Rattus norvegicus, UniProt O08557); assay: DDAH activity assay (rat kidney lysate, [14C]L-NMMA to [14C]citrulline); format: biochemical; details: for Inhibition at 1 mM, % / inhibition at 1000 µM: 1 mM compound, [14C]L-NMMA 1 μmol/L, 1 h 37° C.; for Inhibition at 100 μM (%) / inhibition at 100 µM: 100 μM compound
T1 construct: Rat kidney was homogenized in PBS; from tissue; host or cells: rat kidney homogenate, high-speed supernatant
T1 sequence (O08557 2-285 limits assumed): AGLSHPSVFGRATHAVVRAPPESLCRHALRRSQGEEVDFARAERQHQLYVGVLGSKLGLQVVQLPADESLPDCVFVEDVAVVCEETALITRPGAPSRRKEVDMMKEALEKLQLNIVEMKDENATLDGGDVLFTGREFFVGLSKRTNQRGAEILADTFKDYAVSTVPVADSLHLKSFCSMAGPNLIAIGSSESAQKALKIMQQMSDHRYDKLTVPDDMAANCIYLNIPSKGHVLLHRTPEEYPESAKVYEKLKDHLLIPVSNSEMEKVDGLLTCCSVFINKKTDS
Experimental: Rat kidney was homogenized in PBS containing PMSF 1 mM, leupeptin 5 μg/ml, pepstatin 5 μg/ml, chymostatin 5 μg/ml, and the lysate was centrifuged (4000 rpm. 20 min then supernatant further centrifuged for 40000 rpm, 30 min, 4° C.). The supernatants were analyzed for DDAH activity; [^14[…]) was added to the cell lysates (final volume 100 μl) and incubated for 1 h at 37° C. Dowex resin (0.5 ml) at neutral pH was immediately added to samples to terminate the reaction and bind unmetabolized L-NMMA. [^14C]Citrulline formation was determined by scintillation counting (Hewlett Packard).

[2] = tested on: eNOS; assay: eNOS assay ([14C]arginine conversion); format: biochemical; details: eNOS activity
Experimental: Compounds to be tested were added to NOS assay buffer (HEPES 50 mM pH 7.2, FAD 5 μM, FMN 5 μM, BH4 10 μM, NADPH 1 mM, DTT 0.5 mM, CaCl2 1 mM, MgCl2 1 mM, calmodulin 50 nM, [^14C] arginine 100 μM) in a final volume of 100 μl and the reaction was initiated by addition of eNOS (eNOS 3.3. U/reaction, Alexis Biochemicals). Reactions were incubated for 1 h at 37° C. and the reaction was terminated by the addition of Dowex pH 5.5 (0.85 ml) to each tube. Tubes were vortexed and microfuged <12000 g, 5 min. 100 μl of the Dowex supernatant was added to 5 ml scintillation cocktail and was counted in a scintillation counter (Hewlett Packard). The compounds were tested at 1 mM and 0.1 mM concentrations. Activity is expressed as % of control where control contained no inhibitor, n=4. The DDAH inhibitors of the present invention tested had no significant effect on eNOS activity.

[3] = tested on: RAW cells; assay: Cell viability assay (MTT) in RAW cells
Experimental: RAW cells were treated with DDAH inhibitor compound (0.5 mM) in complete media for 24 h; cells were subsequently assessed for viability by MTT assay. Cell culture media was removed from cells and replaced with 200 μl complete media containing 3-[4,5-Dimethylthiazol-2-yl]-2,5-diphenyltetrazolium bromide (MTT 0.2 mg/ml) for 30 min at 37° C. MTT containing media was removed and 100 ul DMSO was added to solubilize cells; after shaking, plates were read at OD550 nm.

[4] = biological target: T2, iNOS (Mus musculus, UniProt P29477); assay: iNOS activity Greiss assay in stimulated RAW cells; format: cell-based; details: Griess NOx, RAW cells stimulated 24 h with LPS/IFN and TNF, compound 0.5 mM, 550 nm; control 0.367 ± 0.021
T2 construct: endogenous in cells; host or cells: RAW cells stimulated with LPS/IFN and TNF
Experimental: RAW cells were stimulated for 24 h with LPS/IFN and TNF, in the presence of the DDAH inhibitor compounds (0.5 mM). Levels of NOx secreted into the media by the cells were determined by Griess assay: Greiss reagent [1:1 sulfanilamide ([…]) in ortho-phosphoric acid (50%) and N-(1-napthyl)ethylenediamine dihydrochloride (1%)] was added as 100 μl volume to 100 μl cell culture media and the plate was read at 550 nm and analysed in relation to sodium nitrite and nitrate standards.

[5] = MTT, RAW cells, compound 0.5 mM, 24 h, OD550 nm, control 2.54 ± 0.26

SMILES: NC(=NCc1cccs1)NCC[C@H](N)C(=O)O [(S)-2-Amino-4-(N′-(2-thiophenemethyl)guanidino)butanoic acid]
Inhibition at 1 mM, % [1]: 34%

SMILES: CC(C)N=C(N)NCC[C@H](N)C(=O)O [Example 1, (S)-2-Amino-4-(N′-isopropylguanidino)butanoic acid]
inhibition at 1000 µM [1]: 38%

SMILES: CCCN=C(N)NCC[C@H](N)C(=O)O [Example 2, (S)-2-Amino-4-(N′-propylguanidino)butanoic acid]
inhibition at 1000 µM [1]: 41%

SMILES: NC(=NCc1ccccc1)NCC[C@H](N)C(=O)O [Example 3, (S)-2-Amino-4-(N′-benzylguanidino)butanoic acid]
inhibition at 1000 µM [1]: 22%

SMILES: NC(=NC1CCCCC1)NCC[C@H](N)C(=O)O [Example 4, (S)-2-Amino-4-(N′-cyclohexylguanidino)butanoic acid]
inhibition at 1000 µM [1]: 51%

SMILES: NC(=Nc1ccccc1)NCC[C@H](N)C(=O)O [Example 5, (S)-2-Amino-4-(N′-phenylguanidino)butanoic acid]
inhibition at 1000 µM [1]: 65%

SMILES: COCCN=C(N)NCC[C@H](N)C(=O)O [Example 6, (S)-2-Amino-4-(N′-(2-methoxyethyl)guanidino)butanoic acid]
inhibition at 1000 µM [1]: 90%

SMILES: CCCCCCCCN=C(N)NCC[C@H](N)C(=O)O [Example 7, (S)-2-Amino-4-(N′-octylguanidino)butanoic acid]
inhibition at 1000 µM [1]: 27%

SMILES: NC(=NC1CC1)NCC[C@H](N)C(=O)O [Example 8, (S)-2-Amino-4-(N′-cyclopropylguanidino)butanoic acid]
inhibition at 1000 µM [1]: 65%

SMILES: CN(C)CCN=C(N)NCC[C@H](N)C(=O)O [Example 9, (S)-2-Amino-4-(N′-(2′-dimethylaminoethyl)guanidino)butanoic acid]
Inhibition at 1 mM, % [1]: 25%

SMILES: CC(C)(C)CN=C(N)NCC[C@H](N)C(=O)O [Example 10]
Inhibition at 1 mM, % [1]: 19%

SMILES: NC(=NCCOc1ccccc1)NCC[C@H](N)C(=O)O [Example 11, (S)-2-Amino-4-(N′-(2-phenoxyethyl)guanidino)butanoic acid]
inhibition at 1000 µM [1]: 38%

SMILES: CSCCN=C(N)NCC[C@H](N)C(=O)O [Example 12, (S)-2-Amino-4-(N′-(2-methylthioethyl)guanidino)butanoic acid]
inhibition at 1000 µM [1]: 19%

SMILES: CC(C)OCCN=C(N)NCC[C@H](N)C(=O)O [Example 13, (S)-2-Amino-4-(N′-(2-isopropoxyethyl)guanidino)butanoic acid]
inhibition at 1000 µM [1]: 97%

SMILES: C=CCN=C(N)NCC[C@H](N)C(=O)O [Example 14, (S)-2-Amino-4-(N′-allylguanidino)butanoic acid]
inhibition at 1000 µM [1]: 70%

SMILES: N=C(NCC[C@H](N)C(=O)O)N1CCCCC1 [Example 15, (S)-2-Amino-4-[(piperidine-1-carboximidoyl)-amino]butanoic acid]
inhibition at 1000 µM [1]: 74%

SMILES: N=C(NCC[C@H](N)C(=O)O)N1CCCC1 [Example 16, (S)-2-Amino-4-[(pyrrolidine-1-carboximidoyl)-amino]butanoic acid]
inhibition at 1000 µM [1]: 79%

SMILES: N=C(NCC[C@H](N)C(=O)O)N1CCOCC1 [Example 17, (S)-2-Amino-4-[(morpholine-4-carboximidoyl)-amino]butanoic acid]
inhibition at 1000 µM [1]: 60%

SMILES: COCCN=C(N)NCC[C@H](N)C(=O)OC [Example 22, (S)-2-Amino-4-(N′-(2-methoxyethyl)guanidino)butanoic acid methyl ester]
% of control ± sd ([2]; 0.1 mM compound): 87.23 ± 18.05 [2] % of control
% of control ± sd ([2]; 1 mM compound): 84.05 ± 8.09 [4] % of control
inhibition at 1000 µM [1]: 75%
OD units drug ± sd [3]: 2.33 ± 0.19 OD units
OD units drug ± sd [4]: 0.329 ± 0.013 OD units

SMILES: CCOC(=O)[C@@H](N)CCNC(N)=NCCOC [Example 23, (S)-2-Amino-4-(N′-(2-methoxyethyl)guanidino)butanoic acid ethyl ester]
inhibition at 1000 µM [1]: 44%

SMILES: CCCOC(=O)[C@@H](N)CCN(CCOC)C(=N)N [Example 24, (S)-2-Amino-4-(N-(2-methoxyethyl)guanidino)butanoic acid propyl ester]
% of control ± sd ([2]; 0.1 mM compound): 113.5 ± 7.93 [2] % of control
% of control ± sd ([2]; 1 mM compound): 93.97 ± 12.93 [4] % of control
Inhibition at 1 mM, % [1]: 64%
OD units drug ± sd [4]: 0.351 ± 0.013 OD units

SMILES: N=C(NCCC[C@H](N)C(=O)O)NCC1CCCO1 (stereo partly drawn) [Example 31, (S)—N^G-((Tetrahydrofuran-2-yl)methyl)-arginine]
Inhibition at 100 μM (%) [1]: 30%

SMILES: N=C(NCC[C@H](N)C(=O)O)NCC1CCCO1 (stereo partly drawn) [Example 32, (2S)-2-Amino-4-N^G-((tetrahydrofuran-2-yl)methyl)guanidinobutanoic acid]
Inhibition at 100 μM (%) [1]: 10%

SMILES: CNC(=N)NCCC[C@H](N)C(=O)O [L-NMMA, N^G monomethyl-L-arginine, reference compound]
% of control ± sd ([2]; 1 mM compound): 16.17 ± 15.78 [4] % of control
OD units drug ± sd [3, 5]: 2.22 ± 0.08 OD units
OD units drug ± sd [4]: 0.121 ± 0.003 OD units

The next lines start with results.

inhibition at 1000 µM [1]: 40%
SMILES: CCCCOC(=O)[C@@H](N)CCNC(N)=NCCOC [Example 25, (S)-2-Amino-4-(N′-(2-methoxyethyl)guanidino)butanoic acid butyl ester]

inhibition at 1000 µM [1]: 96%
OD units drug ± sd [4]: 0.327 ± 0.026 OD units
SMILES: COCCN=C(N)NCC[C@H](N)C(=O)OCc1ccccc1 [Example 26, (S)-2-Amino-4-(N′-(2-methoxyethyl)guanidino)butanoic acid benzyl ester]
% of control ± sd ([2]; 0.1 mM compound): 101.2 ± 38.07 [2] % of control
% of control ± sd ([2]; 1 mM compound): 82.88 ± 10.08 [4] % of control
OD units drug ± sd [3]: 2.40 ± 0.17 OD units

inhibition at 100 µM [1]: 47.4%
SMILES: COCCN=C(N)NCC[C@H](N)C(=O)OCc1ccccc1OC [Example 33, 2-Methoxybenzyl (S)-2-amino-4-[(N′-(2-methoxyethyl))guanidino]butanoate]

inhibition at 100 µM [1]: 22.1%
SMILES: COCCN=C(N)NCC[C@H](N)C(=O)OCc1ccc(OC)cc1 [Example 34, 4-Methoxybenzyl (S)-2-amino-4-[(N′-(2-methoxyethyl))guanidino]butanoate]

inhibition at 100 µM [1]: 39.8%
SMILES: COCCN=C(N)NCC[C@H](N)C(=O)OCc1ccccc1F [Example 35, 2-Fluorobenzyl (S)-2-amino-4-[(N′-(2-methoxyethyl))guanidino]butanoate]

inhibition at 100 µM [1]: 50.6%
SMILES: COCCN=C(N)NCC[C@H](N)C(=O)OCc1ccc(F)c(C(F)(F)F)c1 [Example 36, 3-Trifluoromethyl-4-fluorobenzyl (S)-2-amino-4-[(N′-(2-methoxyethyl))guanidino]butanoate]

inhibition at 100 µM [1]: 42.7%
SMILES: COCCN=C(N)NCC[C@H](N)C(=O)OCc1cccc(Oc2ccccc2)c1 [Example 37, 3-Phenoxybenzyl (S)-2-amino-4-[(N′-(2-methoxyethyl))guanidino]butanoate]

inhibition at 100 µM [1]: 48.7%
SMILES: COCCN=C(N)NCC[C@H](N)C(=O)OCc1cccc(C)c1 [Example 38, 3-Methylbenzyl (S)-2-amino-4-[(N′-(2-methoxyethyl))guanidino]butanoate]

inhibition at 100 µM [1]: 45.3%
SMILES: COCCN=C(N)NCC[C@H](N)C(=O)OCc1cccc(C(F)(F)F)c1 [Example 39, 3-Trifluoromethylbenzyl (S)-2-amino-4-[(N′-(2-methoxyethyl))guanidino]butanoate]

inhibition at 100 µM [1]: 33.2%
SMILES: COCCN=C(N)NCC[C@H](N)C(=O)OCc1cccc(F)c1 [Example 40, 3-Fluorobenzyl (S)-2-amino-4-[(N′-(2-methoxyethyl))guanidino]butanoate]

inhibition at 100 µM [1]: 59%
SMILES: COCCN=C(N)NCC[C@H](N)C(=O)OCCOC [Example 41, 2-Methoxyethyl (S)-2-amino-4-[(N′-(2-methoxyethyl))guanidino]butanoate]

OD units drug ± sd [4]: 0.103 ± 0.002 OD units
SMILES: CC(=N)NCCC[C@H](N)C(=O)O [NIO, L-N-5-(1-iminoethyl)ornithine, reference compound]
% of control ± sd ([2]; 0.1 mM compound): 4.14 ± 8.74 [3] % of control
% of control ± sd ([2]; 1 mM compound): 6.25 ± 7.52 [5] % of control
OD units drug ± sd [3, 5]: 1.89 ± 0.41 OD units
